Here are results for 5 substances from patent publication US9833497B2, “Human originated EGF domain proteins and use of the same” (CHENGDU SOURCEBIO LIMITED-LIABILITY COMPANY, priority 2013, dated 2017).

What all share (type): cell-based
The subject of one assay is Aeromonas hydrophila. Nature of the assay: MIC against Gram-negative bacteria: Aeromonas hydrophila. In a few lines:
(§1)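 MIC = lowest concentration of recombinant protein showing no growth. Test proteins: purified human-derived EGF domain proteins, two-fold dilution series, three wells per concentration; inoculum 5×10^5 CFU/mL in LB; incubation 37° C with shaking at 175 rpm.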

Another assay concerns Serratia marcescens. The experiment in a line: MIC against Gram-negative bacteria: Serratia marcescens. In a few lines: as §1
A further assay deals with Pseudomonas aeruginosa. The experiment in a line: MIC against Gram-negative bacteria: Pseudomonas aeruginosa. A digest of the protocol:
as §1

A further assay relates to E. coli DH5α. The experiment in a line: Antibacterial activity: MIC and growth curve against E. coli DH5α in 96-well plate. The note with it: minimal inhibitory concentration against E. coli DH5α; 96-well plate, 5×10^5 CFU/mL, 37° C., judged after 8 h. In a few lines:
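Log-phase bacteria (OD600 ~0.5) resuspended in LB at 5×10^5 CFU/mL, exposed to recombinant protein at 50, 25, 12.5 μg/mL final in triplicate, 37 °C shaking at 175 rpm. OD600 read every 30 min; MIC is lowest concentration showing no growth.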

The subject of a further assay is E. coli BL21. The experiment in a line: MIC against Gram-negative bacteria: E. coli BL21. A digest of the protocol: as §1
For the next assay, the system named is Proteus mirabilis. Nature of the assay: MIC against Gram-negative bacteria: Proteus mirabilis. A digest of the protocol:
as §1

The next assay concerns Klebsiella pneumonia. Nature of the assay: MIC against Gram-negative bacteria: Klebsiella pneumonia. In a few lines: as §1
Another assay concerns Moraxella catarrhalis. The experiment in a line: MIC against Gram-negative bacteria: Moraxella catarrhalis. In a few lines: as §1
A further assay has as its system Citrobacter diversus. The experiment in a line: MIC against Gram-negative bacteria: Citrobacter diversus. In a few lines: as §1
Another assay deals with Proteus vulgaris. Nature of the assay: MIC against Gram-negative bacteria: Proteus vulgaris. In a few lines: as §1
The test system of a further assay is Enterobacter cloacae. Nature of the assay: MIC against Gram-negative bacteria: Enterobacter cloacae. In a few lines:
as §1

The mark [1] stands for this setting: 96-well plate, 5×10^5 CFU/mL, 37° C., 10 h.
Where [2] appears, read: Aeromonas hydrophila, 96-well plate, 5×10^5 CFU/mL, 37° C., 10 h.
The mark [3] stands for this setting: Serratia marcescens, 96-well plate, 5×10^5 CFU/mL, 37° C., 10 h.
The mark [4] stands for this setting: Pseudomonas aeruginosa, 96-well plate, 5×10^5 CFU/mL, 37° C., 10 h.
Where [5] appears, read: E. coli BL21, 96-well plate, 5×10^5 CFU/mL, 37° C., 10 h.
[6] abbreviates: Proteus mirabilis, 96-well plate, 5×10^5 CFU/mL, 37° C., 10 h.
[7] abbreviates: Klebsiella pneumonia, 96-well plate, 5×10^5 CFU/mL, 37° C., 10 h.
[8] abbreviates: Moraxella catarrhalis, 96-well plate, 5×10^5 CFU/mL, 37° C., 10 h.
Where [9] appears, read: Citrobacter diversus, 96-well plate, 5×10^5 CFU/mL, 37° C., 10 h.
[10] abbreviates: Proteus vulgaris, 96-well plate, 5×10^5 CFU/mL, 37° C., 10 h.
[11] abbreviates: Enterobacter cloacae, 96-well plate, 5×10^5 CFU/mL, 37° C., 10 h.

As for “PRT495 (CDCDLRGTSGDACNLEQGLCGCVEETGACPCKENVFGPQCNECREGTFALRADNPLGCSP; listed as Homo sapiens)”, in the assay on Aeromonas hydrophila (setting [1]), the “MIC against A. hydrophila” value worked out at 50 µg/mL. Also, in the assay on Serratia marcescens (setting [1]), the “MIC against S. marcescens” value was found to be 25 µg/mL. Besides, in the assay on Pseudomonas aeruginosa (setting [1]), the “MIC against P. aeruginosa” value is 25 µg/mL. This substance came in with an MIC against E. coli DH5α of 25 µg/mL. The “MIC against E. coli BL21” value with E. coli BL21 (setting [1]) was found to be 50 µg/mL. The “MIC against P. mirabilis” value against Proteus mirabilis (setting [1]) is 25 µg/mL. The “MIC against K. pneumonia” value in the assay with Klebsiella pneumonia (setting [1]) was 12.5 µg/mL. The “MIC against M. catarrhalis” value in the assay with Moraxella catarrhalis (setting [1]) stood at 12.5 µg/mL. Further, the “MIC against C. diversus” value with Citrobacter diversus (setting [1]) was determined as 25 µg/mL. Also, the “MIC against P. vulgaris” value against Proteus vulgaris (setting [1]) worked out at 12.5 µg/mL. Also, in the assay on Enterobacter cloacae (setting [1]), the “MIC against E. cloacae” value was 25 µg/mL.

As for “PRT122 (CAPCQGNGVPVLKGSRCDCICPVGSQGLACE; listed as Homo sapiens)”, the “MIC (μg/mL) A. hydrophila” value against Aeromonas hydrophila (setting [2]) was 12.5 µg/mL. For the same substance, the “MIC (μg/mL) S. marcescens” value in the assay with Serratia marcescens (setting [3]) stood at 12.5 µg/mL. Also, in the assay on Pseudomonas aeruginosa (setting [4]), the “MIC (μg/mL) P. aeruginosa” value stood at 12.5 µg/mL. The same substance had an MIC against E. coli DH5α of 12.5 µg/mL. The “MIC (μg/mL) E. coli BL21” value in the assay with E. coli BL21 (setting [5]) was 12.5 µg/mL. Also, the “MIC (μg/mL) P. mirabilis” value with Proteus mirabilis (setting [6]) was 12.5 µg/mL. The “MIC (μg/mL) K. pneumonia” value with Klebsiella pneumonia (setting [7]) turned out to be 12.5 µg/mL. Besides, in the assay with Moraxella catarrhalis (setting [8]), the “MIC (μg/mL) M. catarrhalis” value is 25 µg/mL. The “MIC (μg/mL) C. diversus” value against Citrobacter diversus (setting [9]) came to 12.5 µg/mL. Moreover, the “MIC (μg/mL) P. vulgaris” value with Proteus vulgaris (setting [10]) is 25 µg/mL. For the same substance, in the assay with Enterobacter cloacae (setting [11]), the “MIC (μg/mL) E. cloacae” value turned out to be 12.5 µg/mL.

With “PRT32 (RCEAQKWGPECNHLCTACMNNGVCHEDTGECICPPGFMGRTCE; listed as Homo sapiens)”, the “MIC (μg/mL) A. hydrophila” value with Aeromonas hydrophila (setting [2]) came out at 50 µg/mL. In the assay on Serratia marcescens (setting [3]), the “MIC (μg/mL) S. marcescens” value amounted to 50 µg/mL. Moreover, in the assay on Pseudomonas aeruginosa (setting [4]), the “MIC (μg/mL) P. aeruginosa” value was 12.5 µg/mL. In the assay with E. coli DH5α, this substance had an MIC of 12.5 µg/mL. For the same substance, the “MIC (μg/mL) E. coli BL21” value in the assay on E. coli BL21 (setting [5]) worked out at 50 µg/mL. Further, the “MIC (μg/mL) P. mirabilis” value with Proteus mirabilis (setting [6]) amounted to 12.5 µg/mL. In the assay on Klebsiella pneumonia (setting [7]), the “MIC (μg/mL) K. pneumonia” value amounted to 12.5 µg/mL. For the same substance, the “MIC (μg/mL) M. catarrhalis” value in the assay on Moraxella catarrhalis (setting [8]) stood at 50 µg/mL. For the same substance, in the assay with Citrobacter diversus (setting [9]), the “MIC (μg/mL) C. diversus” value is 12.5 µg/mL. Besides, the “MIC (μg/mL) P. vulgaris” value with Proteus vulgaris (setting [10]) was 25 µg/mL. In the assay on Enterobacter cloacae (setting [11]), the “MIC (μg/mL) E. cloacae” value came to 25 µg/mL.

On to “PRT900 (VLAPCAPSPCRNGGECRQSEDYESFSCVCPTGWQGQTCE; listed as Homo sapiens)”, for which the minimal inhibitory concentration (MIC) in the assay with Aeromonas hydrophila (A. hydrophila, 10 h cultivation at 37° C.) came out at 12.5 µg/mL; in the assay on Serratia marcescens (S. marcescens, 10 h cultivation at 37° C.), 50 µg/mL; against Pseudomonas aeruginosa (P. aeruginosa, 10 h cultivation at 37° C.) it was 12.5 µg/mL; against E. coli DH5α, 12.5 µg/mL; in the assay on E. coli BL21 (E. coli BL21, 10 h cultivation at 37° C.), 25 µg/mL; against Proteus mirabilis (P. mirabilis, 10 h cultivation at 37° C.), 12.5 µg/mL. For the same substance, the MIC was found to be 12.5 µg/mL in the assay on Klebsiella pneumonia (K. pneumonia, 10 h cultivation at 37° C.); 25 µg/mL in the assay with Moraxella catarrhalis (M. catarrhalis, 10 h cultivation at 37° C.); 12.5 µg/mL in the assay on Citrobacter diversus (C. diversus, 10 h cultivation at 37° C.); 25 µg/mL in the assay on Proteus vulgaris (P. vulgaris, 10 h cultivation at 37° C.); 12.5 µg/mL in the assay with Enterobacter cloacae (E. cloacae, 10 h cultivation at 37° C.).

As for “PRT783 (WGPNCSLPCYCKNGASCSPDDGICECAPGFRGTTCQ; listed as Homo sapiens)”, the “MIC (μg/mL) A. hydrophila” value in the assay with Aeromonas hydrophila (A. hydrophila, 10 h cultivation at 37° C., 5×10^5 CFU/mL) came to 50 µg/mL. For the same substance, the “MIC (μg/mL) S. marcescens” value against Serratia marcescens (S. marcescens, 10 h cultivation at 37° C., 5×10^5 CFU/mL) was 12.5 µg/mL. In the assay on Pseudomonas aeruginosa (P. aeruginosa, 10 h cultivation at 37° C., 5×10^5 CFU/mL), the “MIC (μg/mL) P. aeruginosa” value amounted to 50 µg/mL. In addition, the MIC with E. coli DH5α was 25 µg/mL. Besides, in the assay on E. coli BL21 (E. coli BL21, 10 h cultivation at 37° C., 5×10^5 CFU/mL), the “MIC (μg/mL) E. coli BL21” value stood at 12.5 µg/mL. Besides, the “MIC (μg/mL) P. mirabilis” value against Proteus mirabilis (P. mirabilis, 10 h cultivation at 37° C., 5×10^5 CFU/mL) is 25 µg/mL. In addition, the “MIC (μg/mL) K. pneumonia” value against Klebsiella pneumonia (K. pneumonia, 10 h cultivation at 37° C., 5×10^5 CFU/mL) worked out at 12.5 µg/mL. The “MIC (μg/mL) M. catarrhalis” value in the assay with Moraxella catarrhalis (M. catarrhalis, 10 h cultivation at 37° C., 5×10^5 CFU/mL) came to 12.5 µg/mL. Also, the “MIC (μg/mL) C. diversus” value in the assay on Citrobacter diversus (C. diversus, 10 h cultivation at 37° C., 5×10^5 CFU/mL) is 25 µg/mL. The “MIC (μg/mL) P. vulgaris” value against Proteus vulgaris (P. vulgaris, 10 h cultivation at 37° C., 5×10^5 CFU/mL) is 50 µg/mL. The “MIC (μg/mL) E. cloacae” value against Enterobacter cloacae (E. cloacae, 10 h cultivation at 37° C., 5×10^5 CFU/mL) is 25 µg/mL.
